Structures can show the parent of a compound that is named as a salt.
| SMILES | melting point [°C] |
| --- | --- |
| c1cc2nonc2cc1-c1ccc(C23CCN(CC2)C3)cn1 | 139 to 140 |
| Fc1ncccc1-c1ccc(C23CCN(CC2)C3)cn1 | 116 to 117 |
| COc1ccc(-c2ccc(C34CCCN(CCC3)C4)cn2)c(OC)c1 (as salt: HBr) | 198 to 200 |
| CC(C)(C)OC(=O)N1CCN(c2ccc(-c3ccc(C45CCN(CC4)C5)cn3)cn2)CC1 | 216 to 218 |
| c1cncc(-c2ccc(C34CCCN(CCC3)C4)cn2)c1 | 118 to 120 |
| Fc1ccccc1-c1ccc(C23CCN(CC2)C3)cn1 | 110 to 112 |
| COc1ccc(-c2ccc(C34CCN(CC3)C4)cn2)cc1OC (as salt: HCl) | 247 to 249 |
| COc1ccc(-c2ccc(C34CCCN(CCC3)C4)cn2)cc1F | 138 to 140 |
| CC(C)(C)OC(=O)N1CCN(c2ccc(-c3ccc(C45CCCN(CCC4)C5)cn3)cn2)CC1 | 202 to 204 |
| c1cc(-c2ccc(C34CCCN(CCC3)C4)cn2)cc(-n2cccn2)c1 | 135 to 137 |
| COc1cc(F)ccc1-c1ccc(C23CCN(CC2)C3)cn1 | 169 to 170 |
| COc1cc(F)cc(-c2ccc(C34CCN(CC3)C4)cn2)c1 | 95 to 97 |
| c1cc(-c2ccc(C34CCCN(CCC3)C4)cn2)c[nH]1 | 152 to 154 |
| c1ccc2oc(-c3ccc(C45CCN(CC4)C5)cn3)cc2c1 | 164 to 165 |
| c1csc(-c2ccc(C34CCCN(CCC3)C4)cn2)n1 | 124 to 126 |
| COc1ccc(OC)c(-c2ccc(C34CCCN(CCC3)C4)cn2)c1 | 101 to 103 |
| FC(F)(F)Oc1cccc(-c2ccc(C34CCCN(CCC3)C4)cn2)c1 (as salt: HBr) | 267 to 269 |
| Cn1ccc2cc(-c3ccc(C45CCCN(CCC4)C5)cn3)ccc21 | 166 to 168 |
| c1ccc2c(c1)nnn2-c1ccc(C23CCCN(CCC2)C3)cn1 (as salt: HCl) | 258 to 260 |
| c1nc(N2CCOCC2)ncc1-c1ccc(C23CCCN(CCC2)C3)cn1 | 189 to 191 |
| Fc1cccc(-c2ccc(C34CCCN(CCC3)C4)cn2)c1 | 102 to 104 |
| c1cc(-c2ccc(C34CCCN(CCC3)C4)cn2)c2cccnc2c1 | 147 to 149 |
| FC(F)(F)Oc1cccc(-c2ccc(C34CCN(CC3)C4)cn2)c1 (as salt: HCl) | 152 to 154 |
| c1cc(-c2ccc(C34CCN(CC3)C4)cn2)c2cccnc2c1 | 129 to 131 |
| Cc1ccc(-c2ccc(C34CCN(CC3)C4)cn2)cc1 | 134 to 136 |

| SMILES | melting point [°C] |
| --- | --- |
| COc1cccc(-c2ccc(C34CCCN(CCC3)C4)cn2)c1 (as salt: HCl) | 267 to 269 |
| c1ccc2sc(-c3ccc(C45CCN(CC4)C5)cn3)cc2c1 | 202 to 203 |
| c1ccc2cc(-c3ccc(C45CCCN(CCC4)C5)cn3)ccc2c1 | 163 to 165 |
| c1ccc2oc(-c3ccc(C45CCCN(CCC4)C5)cn3)cc2c1 | 152 to 154 |
| FC(F)(F)c1cccc(-c2ccc(C34CCN(CC3)C4)cn2)c1 (as salt: HCl) | 191 to 192 |
| c1ccc(-c2ccc(-c3ccc(C45CCCN(CCC4)C5)cn3)cc2)cc1 | 146 to 148 |
| Fc1cc(-c2ccc(C34CCN(CC3)C4)cn2)ccc1-c1ccccc1 | 153 to 155 |
| COc1ccc(-c2ccc(C34CCN(CC3)C4)cn2)cc1 | 160 to 162 |
| c1ccc2c(-c3ccc(C45CCCN(CCC4)C5)cn3)cncc2c1 (as salt: HBr) | 332 to 334 |
| c1ccc(Oc2ccc(-c3ccc(C45CCCN(CCC4)C5)cn3)cc2)cc1 | 129 to 131 |
| COc1ccccc1-c1ccc(C23CCN(CC2)C3)cn1 (as salt: HBr) | 114 to 116 |
| COc1cc(F)ccc1-c1ccc(C23CCCN(CCC2)C3)cn1 | 148 to 150 |
| COc1cccc(-c2ccc(C34CCN(CC3)C4)cn2)c1 | 87 to 89 |
| c1ccc(-c2ccc(-c3ccc(C45CCN(CC4)C5)cn3)cc2)cc1 | 191 to 192 |
| c1ccc(Oc2ccc(-c3ccc(C45CCN(CC4)C5)cn3)cc2)cc1 | 141 to 143 |
| c1ncc(-c2ccc(C34CCCN(CCC3)C4)cn2)cn1 | 139 to 141 |
| FC(F)(F)Oc1ccc(-c2ccc(C34CCN(CC3)C4)cn2)cc1 | 75 to 76 |
| COc1cccc(-c2ccc(C34CCN(CC3)C4)cn2)c1F | 144 to 146 |
| FC(F)(F)Oc1ccc(-c2ccc(C34CCCN(CCC3)C4)cn2)cc1 | 120 to 122 |
| c1cnc2ccc(-c3ccc(C45CCCN(CCC4)C5)cn3)cc2c1 | 151 to 153 |
| c1ccc2c(c1)oc1c(-c3ccc(C45CCCN(CCC4)C5)cn3)cccc12 | 142 to 144 |
| c1cc(-c2ccc(C34CCCN(CCC3)C4)cn2)c2ccncc2c1 (as salt: HBr) | 246 to 248 |
| COc1ncc(-c2ccc(C34CCCN(CCC3)C4)cn2)c(OC)n1 | 81 to 83 |
| Cn1cccc1-c1ccc(C23CCCN(CCC2)C3)cn1 | 105 to 107 |
| COc1ccc(-c2ccc(C34CCN(CC3)C4)cn2)c(OC)c1 (as salt: HBr) | 195 to 197 |

| SMILES | melting point [°C] |
| --- | --- |
| c1ccc2cc(-c3ccc(C45CCN(CC4)C5)cn3)ccc2c1 | 154 to 156 |
| c1ccc2c(c1)sc1ccc(-c3ccc(C45CCCN(CCC4)C5)cn3)cc12 (as salt: HCl) | 242 to 244 |
| CC(=O)c1cccc(-c2ccc(C34CCCN(CCC3)C4)cn2)c1 (as salt: HBr) | 284 to 285 |
| FC(F)(F)c1ccc(-c2ccc(C34CCCN(CCC3)C4)cn2)cc1 | 135 to 137 |
| c1cc(-c2ccc(C34CCCN(CCC3)C4)cn2)co1 | 335 to 337 |
| Fc1ncccc1-c1ccc(C23CCCN(CCC2)C3)cn1 | 98 to 99 |
| Fc1ccc(-c2ccc(C34CCN(CC3)C4)cn2)cn1 | 108 to 109 |
| c1ccc2ncc(-c3ccc(C45CCCN(CCC4)C5)cn3)cc2c1 | 160 to 162 |
| c1cnc2ccc(-c3ccc(C45CCN(CC4)C5)cn3)cc2c1 (as salt: HCl) [Compound 12, 6-[5-(1-azabicyclo[2.2.1]hept-4-yl)pyridin-2-yl]quinoline] | 327 to 328 |
| Fc1ccc(-c2ccc(C34CCN(CC3)C4)cn2)cc1F | 85 to 87 |
| FC(F)(F)c1cc(-c2ccc(C34CCN(CC3)C4)cn2)cc(C(F)(F)F)c1 | 117 to 119 |
| COc1ccc(OC)c(-c2ccc(C34CCN(CC3)C4)cn2)c1 (as salt: HBr) | 152 to 154 |
| c1cnc2c(-c3ccc(C45CCN(CC4)C5)cn3)cccc2c1 | 176 to 178 |
| FC(F)(F)c1ccccc1-c1ccc(C23CCN(CC2)C3)cn1 (as salt: HBr) | 310 to 312 |
| c1ccc2c(c1)oc1c(-c3ccc(C45CCN(CC4)C5)cn3)cccc12 | 158 to 160 |
| c1ccc2ncc(-c3ccc(C45CCN(CC4)C5)cn3)cc2c1 | 267 to 268 |
| c1ccc2sc(-c3ccc(C45CCCN(CCC4)C5)cn3)cc2c1 | 176 to 178 |
| CC(=O)c1cccc(-c2ccc(C34CCN(CC3)C4)cn2)c1 | 95 to 98 |
| c1cc(-c2ccc(C34CCN(CC3)C4)cn2)co1 | 279 to 281 |
| c1ccc(-c2ccc(C34CCCN(CCC3)C4)cn2)cc1 | 103 to 105 |
| c1cncc(-c2ccc(C34CCN(CC3)C4)cn2)c1 | 228 to 229 |
| Fc1ccccc1-c1ccc(C23CCCN(CCC2)C3)cn1 | 117 to 119 |
| c1cc(-c2ccc(C34CCN(CC3)C4)cn2)c[nH]1 (as salt: HCl) | 324 to 326 |
| c1ccc2c(-c3ccc(C45CCCN(CCC4)C5)cn3)cccc2c1 | 167 to 169 |
| COc1ccccc1-c1ccc(C23CCCN(CCC2)C3)cn1 (as salt: HBr) | 239 to 241 |

| SMILES | melting point [°C] |
| --- | --- |
| COc1ccncc1-c1ccc(C23CCN(CC2)C3)cn1 | 97 to 99 |
| COc1cccc(-c2ccc(C34CCCN(CCC3)C4)cn2)c1F | 144 to 146 |
| c1nc(N2CCOCC2)ncc1-c1ccc(C23CCN(CC2)C3)cn1 | 226 to 227 |
| COc1ccncc1-c1ccc(C23CCCN(CCC2)C3)cn1 | 134 to 136 |
| c1cc(-c2ccc(C34CCN(CC3)C4)cn2)c2ccncc2c1 | 176 to 178 |
| Fc1ccc(-c2ccc(C34CCCN(CCC3)C4)cn2)cn1 | 121 to 122 |
| c1csc(-c2ccc(C34CCN(CC3)C4)cn2)n1 | 127 to 129 |
| Fc1ccc(-c2ccc(C34CCCN(CCC3)C4)cn2)cc1 | 107 to 109 |
| Fc1cc(-c2ccc(C34CCCN(CCC3)C4)cn2)ccc1-c1ccccc1 | 144 |
| c1cc2c(cc1-c1ccc(C34CCCN(CCC3)C4)cn1)OCO2 | 124 to 126 |
| c1cc(N2CCCC2)ncc1-c1ccc(C23CCCN(CCC2)C3)cn1 | 301 to 303 |
| COc1ccc(-c2ccc(C34CCCN(CCC3)C4)cn2)cc1 | 138 to 139 |
| c1ccc(-c2ccc(C34CCN(CC3)C4)cn2)cc1 | 126 to 128 |
| c1ccc2c(-c3ccc(C45CCN(CC4)C5)cn3)cncc2c1 | 143 to 145 |
| FC(F)(F)c1cccc(-c2ccc(C34CCCN(CCC3)C4)cn2)c1 (as salt: HBr) | 155 to 157 |
| c1cc2nonc2cc1-c1ccc(C23CCCN(CCC2)C3)cn1 | 151 to 153 |
| c1ncc(-c2ccc(C34CCN(CC3)C4)cn2)cn1 | 244 to 246 |
| c1cc(-c2ccc(C34CCN(CC3)C4)cn2)ccn1 | 254 to 256 |
| FC(F)(F)c1cc(-c2ccc(C34CCCN(CCC3)C4)cn2)cc(C(F)(F)F)c1 (as salt: HBr) | 226 to 228 |
| Cn1cccc1-c1ccc(C23CCN(CC2)C3)cn1 (as salt: HCl) | 248 to 250 |
| COc1ncc(-c2ccc(C34CCN(CC3)C4)cn2)c(OC)n1 | 104 to 106 |
| COc1ccc(-c2ccc(C34CCN(CC3)C4)cn2)cc1F | 125 to 126 |
